Each structure is given as a SMILES string.

One series concerns the target T1, MDR1 (Homo sapiens, UniProt P08183).
T1 construct: expressed in transfected cells
Description: MDR1 membrane permeability test. Type of series: in vitro ADME. The settings on record: pH 7.4, efflux ratio (ER), Papp B to A / A to B, human MDR1-expressing LLC-PK1 cells, read-out: MDR1 substrate screening 1 μM (MDRSUB1)/Ratio (NUMBER). Here is the method:
MDR1 Membrane Permeability Test
When MDR1 is expressed in excess in LLC-PK1 cell, which is a polar cell, MDR1 is localized in apical membrane (A), thus promoting transcellular transport from the basement membrane side (B) toward direction A. When a ratio to the transcellular transport in the opposite direction is taken and a ratio to a control cell in which a mock vector has been introduced is further taken, an efflux ratio of MDR1 to simple diffusion (corrected efflux ratio) is calculated. Similarly, when a brain/plasma concentration ratio in Mdr1(−/−) mouse is divided by a brain/plasma concentration ratio in wild-type mouse, an efflux ratio of Mdr1 to simple diffusion in BBB (Kp, brain ratio, higher value means lower central nervous system permeability) is calculated. Adachi Y. et al. (Reference 1) has reported a positive correlation between corrected efflux ratio and Kp, brain ratio (FIG. 5(C)), and efflux ratio in MDR1 expressing cell and Kp, brain ratio (FIG. 5(B)).
To confirm the central nervous system permeability of the compounds of the present invention, a MDR1 membrane permeability test was performed by the following method.
Human MDR1-expressing LLC-PK1 cells were cultured according to the report of Takeuchi et al. (Reference 2). Human MDR1-expressing LLC-PK1 cells were cultured in 10% fetal bovine serum (Invitrogen), 500 μg/ml G418 (Invitrogen), 150 ng/ml colchicine-containing M199 medium (Invitrogen) under 5% CO2 conditions at 37° C.
Transcellular transport was performed according to the report of Sugimoto et al. (Reference 3). The cells were cultured for 3 days on HTS Transwell (registered trademark) 96 well permeable support (pore size 0.4 μm, 0.143 cm^2 surface area, Corning Life Sciences) having polyethylene terephthalate membrane on which the cells had been seeded at 3.45×10^4 cells/well. After preincubation in M199 medium (containing 10 mmol/L HEPES, 1% BSA, pH 7.4) for 30 min, a drug solution (10 μmol/L digoxin, 200 μmol/L LY, […]) dissolved in M199 medium was added to the apical side or basolateral side of the Transwell by 75 or 250 μL each and the cells were cultured under 5% CO2 conditions at 37° C. After 1 hr, the sample was collected from the side opposite to the side where the drug solution was added, and the concentration of the test compound was measured by LC-MS/MS. As an internal standard substance, 100 ng/mL alprenolol and diclofenac were used. The analysis conditions were as follows.
Papp, A to B and Papp, B to A (apparent permeability) were calculated from the formula (1), and the efflux ratio (ER) was calculated from the formula (2).

Series [1] concerns the target T2, human M1 receptor (hCHRM1) (Homo sapiens, UniProt P11229).
T2 construct: expressed in transfected cells
T2 sequence (P11229 1-460): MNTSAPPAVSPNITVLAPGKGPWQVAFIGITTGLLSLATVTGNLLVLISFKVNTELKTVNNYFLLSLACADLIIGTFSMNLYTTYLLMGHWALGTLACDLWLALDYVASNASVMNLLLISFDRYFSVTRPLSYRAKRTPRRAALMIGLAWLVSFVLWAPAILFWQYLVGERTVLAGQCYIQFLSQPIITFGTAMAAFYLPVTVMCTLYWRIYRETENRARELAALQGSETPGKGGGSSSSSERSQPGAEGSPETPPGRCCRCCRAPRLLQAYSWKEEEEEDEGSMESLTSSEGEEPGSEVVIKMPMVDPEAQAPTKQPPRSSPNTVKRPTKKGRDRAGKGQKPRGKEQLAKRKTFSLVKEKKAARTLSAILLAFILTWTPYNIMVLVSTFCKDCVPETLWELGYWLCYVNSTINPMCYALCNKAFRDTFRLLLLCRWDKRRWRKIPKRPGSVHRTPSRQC
Description: Measurement of M1 receptor positive allosteric modulator (M1PAM) activity, calcium fluorescence in CHO-K1 cells. The settings on record: for activity (%) at 10 μM: 10 μM test compound, 100% = acetylcholine final concentration 1 μM, 0% = DMSO; for EC50: inflection point of concentration-dependent curve, in the presence of acetylcholine at EC20 concentration (final 0.8-1.0 nM), read-out: IP value. It counts as cell-based. Here is the method: Measurement of M1 Receptor Positive Allosteric Modulator (M1PAM) Activity
The activity of a test compound in the presence of acetylcholine at EC20 concentration (final concentration 0.8-1.0 nM), which affords an action corresponding to about 20% of the maximum activity, was measured as PAM activity. The method is as follows. CHO-K1 cells stably expressing a human M1 receptor (hCHRM1) were plated on a 384-well black clear bottom plate (BD Falcon) at 5,000 cells/well, and cultured in an incubator at 37° C., 5% CO2 for 1 day. The medium in the cell plate was removed, and assay buffer A containing calcium indicator (Recording medium (DOJINDO LABORATORIES), 0.1% BSA (Wako Pure Chemical Industries, Ltd.), 2.5 μg/mL Fluo-4 AM (DOJINDO LABORATORIES), 0.08% Pluronic F127 (DOJINDO LABORATORIES), 1.25 mM probenecid (DOJINDO LABORATORIES)) was added at 30 μL/well. The cells were left standing in the incubator at 37° C., 5% CO2 for 30 min, and further left standing at room temperature for 30 min. A test compound prepared by diluting with assay buffer B (HBSS (Invitrogen), 20 mM HEPES (Invitrogen), 0.1% BSA) containing 3.2-4.0 nM acetylcholine was added at 10 μL/well, and the fluorescence was measured by FDSS/pCELL (Hamamatsu Photonics K.K.) for 1 min every for 1 second. With the definition that the amount of change in the fluorescence on addition of acetylcholine (final concentration 1 μM) is 100% and that on addition of DMSO instead of a test compound is 0%, the activity (%) of the test compound was calculated, and the inflection point in the concentration-dependent curve of the test compound was calculated as IP values.

T1 sequence (P08183 whole entry): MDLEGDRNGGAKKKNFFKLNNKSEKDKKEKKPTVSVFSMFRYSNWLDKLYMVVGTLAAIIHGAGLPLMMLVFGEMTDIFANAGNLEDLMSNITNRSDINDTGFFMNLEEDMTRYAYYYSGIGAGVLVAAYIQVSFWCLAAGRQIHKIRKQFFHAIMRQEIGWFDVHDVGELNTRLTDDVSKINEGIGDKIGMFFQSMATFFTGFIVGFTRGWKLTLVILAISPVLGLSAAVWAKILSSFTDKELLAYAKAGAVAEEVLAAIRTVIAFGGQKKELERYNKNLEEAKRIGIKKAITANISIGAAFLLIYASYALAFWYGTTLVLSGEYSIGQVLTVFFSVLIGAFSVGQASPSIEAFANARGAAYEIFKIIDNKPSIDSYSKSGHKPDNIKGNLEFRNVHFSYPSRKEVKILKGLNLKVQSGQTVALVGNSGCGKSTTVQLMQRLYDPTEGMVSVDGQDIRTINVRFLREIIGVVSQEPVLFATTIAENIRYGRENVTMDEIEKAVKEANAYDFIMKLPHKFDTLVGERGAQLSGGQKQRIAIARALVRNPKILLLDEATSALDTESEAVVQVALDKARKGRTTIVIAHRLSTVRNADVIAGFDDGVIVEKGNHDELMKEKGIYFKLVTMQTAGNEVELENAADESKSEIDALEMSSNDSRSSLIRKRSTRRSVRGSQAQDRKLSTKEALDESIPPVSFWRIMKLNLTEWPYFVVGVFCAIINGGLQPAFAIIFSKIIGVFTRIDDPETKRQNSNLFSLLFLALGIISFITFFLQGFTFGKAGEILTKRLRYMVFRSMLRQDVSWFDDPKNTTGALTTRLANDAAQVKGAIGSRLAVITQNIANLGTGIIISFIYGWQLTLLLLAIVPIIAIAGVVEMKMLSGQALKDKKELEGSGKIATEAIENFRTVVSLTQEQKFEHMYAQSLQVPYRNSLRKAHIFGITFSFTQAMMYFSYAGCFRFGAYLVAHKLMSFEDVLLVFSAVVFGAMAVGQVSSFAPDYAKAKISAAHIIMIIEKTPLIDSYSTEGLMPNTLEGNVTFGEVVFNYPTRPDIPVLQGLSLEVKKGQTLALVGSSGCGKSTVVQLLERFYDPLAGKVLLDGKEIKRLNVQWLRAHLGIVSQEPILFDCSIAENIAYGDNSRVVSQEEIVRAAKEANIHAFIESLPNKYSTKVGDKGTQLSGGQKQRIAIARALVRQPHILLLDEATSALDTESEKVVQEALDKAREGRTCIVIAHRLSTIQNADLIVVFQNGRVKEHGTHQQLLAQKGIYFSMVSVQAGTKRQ

On to `Cc1c(Cc2ccc(C(=O)NCCO)cc2)cc2c(=O)n([C@H]3CCOC[C@@H]3O)cnc2c1C` [Example 50, 1,5-anhydro-2,3-dideoxy-3-(6-(4-((2-hydroxyethyl)carbamoyl)benzyl)-7,8-dimethyl-4-oxoquinazolin-3 (4H)-yl)-L-threo-pentitol], for which the efflux ratio at 1 hr, 1 μM at MDR1 stood at 13. In series [1], the “activity (%) at 10 μM” value came to 103% and the EC50 was determined as 0.8 nM.

Turning to `Cc1c(Cc2ccc(-c3ccn(C)n3)nc2)cc2c(=O)n([C@H]3CCOC[C@@H]3O)cnc2c1C` [Example 1, 1,5-anhydro-2,3-dideoxy-3-(7,8-dimethyl-6-((6-(1-methyl-1H-pyrazol-3-yl)pyridin-3-yl)methyl)-4-oxoquinazolin-3(4H)-yl)-L-threo-pentitol], on MDR1, the efflux ratio at 1 hr, 1 μM came to 4.7. In series [1], the “activity (%) at 10 μM” value worked out at 101% and the EC50 was determined as 2.1 nM.

On to `Cc1c(Cc2ccc(C(=O)NC3CCOC3)cc2)cc2c(=O)n([C@H]3CCOC[C@@H]3O)cnc2c1C` (stereo partly drawn) [Example 33, 1,5-anhydro-2,3-dideoxy-3-(7,8-dimethyl-4-oxo-6-(4-(tetrahydrofuran-3-ylcarbamoyl)benzyl)quinazolin-3 (4H)-yl)-L-threo-pentitol], for which the efflux ratio at 1 hr, 1 μM at MDR1 amounted to 20. Moreover, in series [1], the “activity (%) at 10 μM” value stood at 111% and the EC50 amounted to 1.8 nM.

As for `Cc1c(Cc2ccc(-c3cn(C)nn3)cc2)cc2c(=O)n([C@H]3CCOC[C@@H]3O)cnc2c1C` [Example 8, 1,5-anhydro-2,3-dideoxy-3-(7,8-dimethyl-6-(4-(1-methyl-1H-1,2,3-triazol-4-yl)benzyl)-4-oxoquinazolin-3(4H)-yl)-L-threo-pentitol], at MDR1, the efflux ratio at 1 hr, 1 μM was found to be 4.8. Moreover, in series [1], the “activity (%) at 10 μM” value amounted to 97% and the EC50 amounted to 1.4 nM.

For the molecule `Cc1c(Cc2ccc(C(=O)NC3CC(F)(F)C3)cc2)cc2c(=O)n([C@H]3CCOC[C@@H]3O)cnc2c1C` [Example 25, 1,5-anhydro-2,3-dideoxy-3-(6-(4-((3,3-difluorocyclobutyl)-carbamoyl)benzyl)-7,8-dimethyl-4-oxoquinazolin-3(4H)-yl)-L-threo-pentitol], the efflux ratio at 1 hr, 1 μM on MDR1 came out at 16. In addition, in series [1], the “activity (%) at 10 μM” value stood at 109% and the EC50 amounted to 1.9 nM.

Consider `Cc1c(Cc2ccc(C(=O)NC[C@@H]3CCCO3)c(F)c2)cc2c(=O)n([C@H]3CCOC[C@@H]3O)cnc2c1C` [Example 80, 1,5-anhydro-2,3-dideoxy-3-(6-(3-fluoro-4-(((2S)-tetrahydrofuran-2-ylmethyl)carbamoyl)benzyl)-7,8-dimethyl-4-oxoquinazolin-3 (4H)-yl)-L-threo-pentitol], for which, on MDR1, the efflux ratio at 1 hr, 1 μM amounted to 9.5. In series [1], the “activity (%) at 10 μM” value is recorded as 107% and the EC50 was 1.9 nM.

Consider `Cc1c(Cc2ccc(C(=O)NC3(C)COC3)c(F)c2)cc2c(=O)n([C@H]3CCOC[C@@H]3O)cnc2c1C` [Example 65, 1,5-anhydro-2,3-dideoxy-3-(6-(3-fluoro-4-((3-methyloxetan-3-yl)carbamoyl)benzyl)-7,8-dimethyl-4-oxoquinazolin-3 (4H)-yl)-L-threo-pentitol], for which the efflux ratio at 1 hr, 1 μM at MDR1 was 15. In series [1], the “activity (%) at 10 μM” value turned out to be 109% and the EC50 was 3 nM.

As for `Cc1c(Cc2ccc(-c3cnn(C)c3)nc2)cc2c(=O)n([C@H]3CCOC[C@@H]3O)nnc2c1Cl` [Example 54, 1,5-anhydro-3-(8-chloro-7-methyl-6-((6-(1-methyl-1H-pyrazol-4-yl)pyridin-3-yl)methyl)-4-oxo-1,2,3-benzotriazin-3 (4H)-yl)-2,3-dideoxy-L-threo-pentitol], at MDR1, the efflux ratio at 1 hr, 1 μM is 9.5. For the same molecule, in series [1], the “activity (%) at 10 μM” value is on record as 106% and the EC50 was found to be 0.99 nM.

As to `Cc1c(Cc2ccc(-c3ccn(C)n3)nc2)cc2c(=O)n([C@H]3CCOC[C@@H]3O)nnc2c1C` [Example 59, 1,5-anhydro-2,3-dideoxy-3-(7,8-dimethyl-6-((6-(1-methyl-1H-pyrazol-3-yl)pyridin-3-yl)methyl)-4-oxo-1,2,3-benzotriazin-3 (4H)-yl)-L-threo-pentitol], the efflux ratio at 1 hr, 1 μM on MDR1 stood at 3.7. In series [1], the “activity (%) at 10 μM” value came out at 108% and the EC50 was determined as 2.6 nM.

Regarding `CNC(=O)c1ccc(Cc2cc3c(=O)n([C@H]4CCOC[C@@H]4O)cnc3c(Cl)c2C)cc1F` [Example 10, 1,5-anhydro-3-(8-chloro-6-(3-fluoro-4-(methylcarbamoyl)benzyl)-7-methyl-4-oxoquinazolin-3(4H)-yl)-2,3-dideoxy-L-threo-pentitol], on MDR1, the efflux ratio at 1 hr, 1 μM worked out at 15.

As to `CNC(=O)c1ccc(Cc2cc3c(=O)n([C@H]4CCOC[C@@H]4O)nnc3c(C)c2C)cn1` [Example 91, 1,5-anhydro-2,3-dideoxy-3-(7,8-dimethyl-6-((6-(methylcarbamoyl)pyridin-3-yl)methyl)-4-oxo-1,2,3-benzotriazin-3 (4H)-yl)-L-threo-pentitol], the efflux ratio at 1 hr, 1 μM at MDR1 is 5.9.

As to `Cc1nn(C)cc1-c1ccc(Cc2cc3c(=O)n([C@H]4CCOC[C@@H]4O)cnc3c(F)c2C)cn1` [Example 23, 1,5-anhydro-2,3-dideoxy-3-(6-((6-(1,3-dimethyl-1H-pyrazol-4-yl)pyridin-3-yl)methyl)-8-fluoro-7-methyl-4-oxoquinazolin-3(4H)-yl)-L-threo-pentitol], at MDR1, the efflux ratio at 1 hr, 1 μM came out at 19.

Turning to `Cc1c(Cc2ccc(C(=O)NCC(C)(C)O)cc2)cc2c(=O)n([C@H]3CCOC[C@@H]3O)cnc2c1C` [Example 39, 1,5-anhydro-2,3-dideoxy-3-(6-(4-((2-hydroxy-2-methylpropyl)carbamoyl)benzyl)-7,8-dimethyl-4-oxoquinazolin-3 (4H)-yl)-L-threo-pentitol], in series [1], the “activity (%) at 10 μM” value was determined as 112% and the EC50 stood at 3.3 nM.

Take `Cc1c(Cc2ccc(C(=O)NC3(C#N)CC3)c(F)c2)cc2c(=O)n([C@H]3CCOC[C@@H]3O)cnc2c1C` [Example 89, 1,5-anhydro-3-(6-(4-((1-cyanocyclopropyl)carbamoyl)-3-fluorobenzyl)-7,8-dimethyl-4-oxoquinazolin-3 (4H)-yl)-2,3-dideoxy-L-threo-pentitol]: the efflux ratio at 1 hr, 1 μM at MDR1 was 16.

(Values after US11560372B2, “Heterocyclic compounds useful as modulators of acetylcholine receptors” (TAKEDA PHARMACEUTICAL COMPANY LIMITED, priority 2017, dated 2023).)
